Assay results as given in patent US9512180B2, “Compstatin analogs” (THE REGENTS OF THE UNIVERSITY OF CALIFORNIA, priority 2012, dated 2016).

Legend:
[1] = Aqueous solubility by concentration measurement (absorbance at 280 nm) of saturated peptide solutions; format: physicochemical; details: saturated peptide solutions, absorbance at 280 nm; read-out: approximate aqueous solubility
Description: The relative lipophilicities of Peptides I, III, VI, IX, and Parent are inversely consistent with solubilities as determined via concentration measurement (absorbance at 280 nm) of saturated peptide solutions, with Peptides I, III, and Parent having approximate aqueous solubilities of >1 mM, Peptide VI>500 μM, and Peptide IX<500 μM.

[2] = RP-HPLC relative lipophilicity (retention factor k, log k); format: physicochemical
Description: The effect of the hydrophobic content of compstatin family peptides on relative lipophilicity was evaluated using RP-HPLC, a widely applied indirect technique for the determination of the lipophilicity of drugs and drug candidates. The determination of log P by RP-HPLC is based on the measurement of the retention factor k between the mobile and stationary phase (Eq. 7) of the investigated compound:
[formula] where tR is the retention time of the analyte, and to is the elution time of an unretained analyte. The logarithm of the retention factor is linearly correlated with the logarithm of the partition coefficient log P=a log k+b (8). where a and b are the slope and intercept of the linear equation.
The determination of log P values requires calibration using structurally related compounds, and is beyond the scope of this study. Instead the log k values were used to indicate the relative lipophilicities of this compstatin peptide family.
HPLC experiments were carried out using an Agilent 1100 HPLC with UV detection at 280 nm at 25° C. Separations were performed on a Waters (Milford, Mass.) 4.6×150 mm XTerra MS C18 column with 5 μm pore size using a mobile phase of A: 10 mM phosphate buffer pH=7.4 containing 1% TFA, and B: acetonitrile. The purity of the peptides was verified by an isocratic separation at 28% B and a flow rate of 1 mL/min. Solutions containing 0.6-0.8 mg/mL of Peptides I, III, VI, IX and the parent peptide were prepared in methanol and diluted 5-times with the eluent. All five peptides eluted as single peaks indicating a high degree of purity (FIG. 10).
For the determination of the relative lipophilicities a solution containing each of the peptides was prepared from the stock solutions and injected in triplicate. […] A 0.5 mg/mL solution of aspartic acid was used as the unretained analyte for the determination of the column dead time, 1.439±0.003 min.
RP-HPLC was used to measure the hydrophobicity/lipophilicity content of the compstatin family peptides. The retention of a compound in RP-HPLC depends on its hydrophobicity/lipophilicity content, and is correlated to the octanol-water partition ratio. Lipophilicity describes the partitioning of a compound between an aqueous and a lipidic/hydrophobic environment, and is an essential physicochemical parameter to determine pharmacokinetic behavior according to ADME (absorption, distribution, metabolism, excretion) characterization. Because the compstatin family peptides consist of a hydrophobic and a polar surface, their ability to bind to the hydrophobic cavity of C3, while maintaining a solvent-exposed face has been evaluated here as lipohilicity content, measured by RP-HPLC. In addition, lipohilicity is inversely proportional to aqueous solubility, and therefore can be used to estimate solubility of the peptides in their free (unbound) state.

rC3 = rC3 (Rattus norvegicus, UniProt P01026); assay: Experimental activity against rC3 (method not described)
Sequence of rC3 (P01026 25-1663): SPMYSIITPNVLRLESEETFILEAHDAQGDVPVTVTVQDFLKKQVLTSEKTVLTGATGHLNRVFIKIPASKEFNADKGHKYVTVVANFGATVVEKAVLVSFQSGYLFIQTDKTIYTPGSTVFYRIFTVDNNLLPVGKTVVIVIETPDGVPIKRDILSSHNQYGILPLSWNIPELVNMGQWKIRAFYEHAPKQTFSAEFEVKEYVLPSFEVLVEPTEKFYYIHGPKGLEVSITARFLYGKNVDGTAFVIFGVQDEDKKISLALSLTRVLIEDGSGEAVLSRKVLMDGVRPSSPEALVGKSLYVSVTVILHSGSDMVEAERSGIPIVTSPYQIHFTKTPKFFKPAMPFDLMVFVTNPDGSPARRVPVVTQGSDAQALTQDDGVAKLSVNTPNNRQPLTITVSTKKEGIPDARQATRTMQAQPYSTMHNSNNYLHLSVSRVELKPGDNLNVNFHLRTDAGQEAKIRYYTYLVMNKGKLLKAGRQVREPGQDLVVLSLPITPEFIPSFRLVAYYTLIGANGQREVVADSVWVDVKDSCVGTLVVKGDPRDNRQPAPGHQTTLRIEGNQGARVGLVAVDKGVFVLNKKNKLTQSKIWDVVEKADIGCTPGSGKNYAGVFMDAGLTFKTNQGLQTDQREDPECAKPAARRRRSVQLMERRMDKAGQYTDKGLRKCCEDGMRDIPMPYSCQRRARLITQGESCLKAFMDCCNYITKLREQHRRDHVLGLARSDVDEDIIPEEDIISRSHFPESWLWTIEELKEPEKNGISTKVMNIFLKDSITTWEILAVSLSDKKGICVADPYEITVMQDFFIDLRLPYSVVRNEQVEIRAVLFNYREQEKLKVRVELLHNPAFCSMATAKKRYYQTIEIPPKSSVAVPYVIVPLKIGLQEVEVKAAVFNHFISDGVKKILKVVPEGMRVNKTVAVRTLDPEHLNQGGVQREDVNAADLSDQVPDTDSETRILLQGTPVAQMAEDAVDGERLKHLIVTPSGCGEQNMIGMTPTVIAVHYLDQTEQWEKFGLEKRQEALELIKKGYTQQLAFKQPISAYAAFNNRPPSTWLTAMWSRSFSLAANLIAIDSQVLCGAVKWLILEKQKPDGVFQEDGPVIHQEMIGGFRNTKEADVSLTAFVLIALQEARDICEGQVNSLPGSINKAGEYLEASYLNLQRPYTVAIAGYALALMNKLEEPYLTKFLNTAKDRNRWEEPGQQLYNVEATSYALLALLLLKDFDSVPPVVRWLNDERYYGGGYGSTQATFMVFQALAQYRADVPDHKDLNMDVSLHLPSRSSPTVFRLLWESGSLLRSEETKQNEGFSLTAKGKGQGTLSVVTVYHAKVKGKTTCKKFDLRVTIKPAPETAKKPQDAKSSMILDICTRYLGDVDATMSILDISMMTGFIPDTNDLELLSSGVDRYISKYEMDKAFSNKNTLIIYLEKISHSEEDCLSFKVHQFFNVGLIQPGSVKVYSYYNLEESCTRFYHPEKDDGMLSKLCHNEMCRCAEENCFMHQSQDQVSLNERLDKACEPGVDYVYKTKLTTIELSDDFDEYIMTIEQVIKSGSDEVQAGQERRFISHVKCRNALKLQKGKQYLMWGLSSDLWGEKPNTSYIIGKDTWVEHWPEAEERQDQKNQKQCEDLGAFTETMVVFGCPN

Structure (SMILES): CC[C@H](C)[C@H](NC(C)=O)C(=O)N[C@H]1CSSC[C@@H](C(=O)N[C@H](C(N)=O)[C@@H](C)O)NC(=O)[C@H](CCCNC(=N)N)NC(=O)[C@H](Cc2c[nH]cn2)NC(=O)[C@H](C)NC(=O)CNC(=O)[C@H](Cc2c[nH]c3ccccc23)NC(=O)[C@H](CC(=O)O)NC(=O)[C@H](CCC(N)=O)NC(=O)[C@H](Cc2c[nH]c3ccccc23)NC(=O)[C@H](C(C)C)NC1=O [Peptide IX, Ac- ICV WQDWGA HRCT-NH2, reference compound]
- solubility [1]: < 500 µM
- Retention factor (k) [2]: 11.429
- logk [2]: 1.058
- activity against rC3 (in words) (rC3): inactive
